Reference: US8871753B2, “Macrocyclic compounds and their use as kinase inhibitors” (Incyte Corporation, priority 2008, dated 2014)

What was measured:
[1] = biological target: T1, human JAK2 (a.a. 828-1132) (Homo sapiens, UniProt O60674); experiment: In vitro JAK kinase assay (HTRF, phosphorylation of a biotinylated peptide), JAK2; type: biochemical; settings: Table D1
T1 construct: JAK2 (a.a. 828-1132); His tag (N); made in house; host or cells: insect cells (baculovirus)
Protocol: (§1) The catalytic activity of JAK1, JAK2 or JAK3 was assayed by measuring the phosphorylation of a biotinylated peptide. The phosphorylated peptide was detected by homogenous time resolved fluorescence (HTRF). […] The ATP concentration in the reactions was 90 μM for JAK1, 30 μM for JAK2 and 3 μM for JAK3. Reactions were carried out at room temperature for 1 hr and then stopped with 20 μL 45 mM EDTA, 300 nM SA-APC, 6 nM Eu-Py20 in assay buffer (Perkin Elmer, Boston, Mass.). Binding to the Europium labeled antibody took place for 40 minutes and HTRF signal was measured on a Fusion plate reader (Perkin Elmer, Boston, Mass.).
(§2) The catalytic activity of JAK1, JAK2 or JAK3 was assayed by measuring the phosphorylation of a biotinylated peptide. The phosphorylated peptide was detected by homogenous time resolved fluorescence (HTRF). […] Reactions were carried out at room temperature for 1 hr and then stopped with 20 μL 45 mM EDTA, 300 nM SA-APC, 6 nM Eu-Py20 in assay buffer (Perkin Elmer, Boston, Mass.). Binding to the Europium labeled antibody took place for 40 minutes and HTRF signal was measured on a Fusion plate reader (Perkin Elmer, Boston, Mass.).

[2] = biological target: T2, human JAK1 (a.a. 837-1142) (Homo sapiens, UniProt P23458); experiment: In vitro JAK kinase assay (HTRF, phosphorylation of a biotinylated peptide), JAK1; type: biochemical; settings: Table D1; read-out: JAK1 IC50
T2 construct: human JAK1 (a.a. 837-1142); His tag (N); made in house; host or cells: insect cells (baculovirus)
T2 sequence (P23458 849-1154): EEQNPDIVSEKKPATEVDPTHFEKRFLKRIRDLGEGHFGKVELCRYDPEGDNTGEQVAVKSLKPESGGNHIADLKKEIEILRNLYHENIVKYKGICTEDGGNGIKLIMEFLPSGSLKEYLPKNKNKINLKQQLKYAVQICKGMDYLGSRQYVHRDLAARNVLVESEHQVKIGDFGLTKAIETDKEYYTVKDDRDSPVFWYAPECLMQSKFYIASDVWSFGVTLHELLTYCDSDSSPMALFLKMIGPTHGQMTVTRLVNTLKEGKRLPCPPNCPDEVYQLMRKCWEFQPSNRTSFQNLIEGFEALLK
Protocol: as §1, §2

T1 sequence (O60674 828-1132): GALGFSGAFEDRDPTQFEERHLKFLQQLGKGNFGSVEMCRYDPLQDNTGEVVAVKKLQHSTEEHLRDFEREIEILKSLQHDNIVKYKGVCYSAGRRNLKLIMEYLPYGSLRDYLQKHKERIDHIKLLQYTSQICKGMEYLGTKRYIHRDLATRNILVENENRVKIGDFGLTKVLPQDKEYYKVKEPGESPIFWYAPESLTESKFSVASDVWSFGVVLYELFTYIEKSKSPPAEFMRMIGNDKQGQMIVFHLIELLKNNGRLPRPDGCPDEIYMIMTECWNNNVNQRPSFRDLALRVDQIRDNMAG

Structure (SMILES)	IC50 [1]	IC50 [2]
O=C(C[C@H]1CCN(C(=O)Nc2ccccc2)C1)Nc1ccc2cc1CCc1cncc(c1)Nc1ncc(Cl)c(n1)N2 [Example D97, (3R)-3-(2-{[6-Chloro-2,4,8,18,22-pentaazatetracyclo[14.3.1.1(3,7).1(9,13)]docosa-1(20),3(22),4,6,9(21),10,12,16,18-nonaen-12-yl]amino}-2-oxoethyl)-N-phenylpyrrolidine-1-carboxamide bis(trifluoroacetate)]	84 nM	3.3 nM
N#Cc1ccc(NC(=O)N2CC[C@H](CC(=O)Nc3ccc4cc3CCc3cncc(c3)Nc3ncc(Cl)c(n3)N4)C2)cc1 [Example D98, (3R)-3-(2-{[6-Chloro-2,4,8,18,22-pentaazatetracyclo[14.3.1.1(3,7).1(9,13)]docosa-1(20),3(22),4,6,9(21),10,12,16,18-nonaen-12-yl]amino}-2-oxoethyl)-N-(4-cyanophenyl)pyrrolidine-1-carboxamide bis(trifluoroacetate)]	122 nM	12 nM
O=C(C[C@H]1CCN(C(=O)Nc2ccc(F)cc2)C1)Nc1ccc2cc1CCc1cncc(c1)Nc1ncc(Cl)c(n1)N2 [Example D102, (3R)-3-(2-{[6-Chloro-2,4,8,18,22-pentaazatetracyclo[14.3.1.1(3,7).1(9,13)]docosa-1(20),3(22),4,6,9(21),10,12,16,18-nonaen-12-yl]amino}-2-oxoethyl)-N-(4-fluorophenyl)pyrrolidine-1-carboxamide bis(trifluoroacetate)]	78 nM	2.5 nM
O=C(C[C@H]1CCN(C(=O)Nc2cccc(F)c2)C1)Nc1ccc2cc1CCc1cncc(c1)Nc1ncc(Cl)c(n1)N2 [Example D103, (3R)-3-(2-{[6-Chloro-2,4,8,18,22-pentaazatetracyclo[14.3.1.1(3,7).1(9,13)]docosa-1(20),3(22),4,6,9(21),10,12,16,18-nonaen-12-yl]amino}-2-oxoethyl)-N-(3-fluorophenyl)pyrrolidine-1-carboxamide bis(trifluoroacetate)]	113 nM	6.7 nM
O=C(C[C@H]1CCN(C(=O)Nc2ccccc2F)C1)Nc1ccc2cc1CCc1cncc(c1)Nc1ncc(Cl)c(n1)N2 [Example D104, (3R)-3-(2-{[6-Chloro-2,4,8,18,22-pentaazatetracyclo[14.3.1.1(3,7).1(9,13)]docosa-1(20),3(22),4,6,9(21),10,12,16,18-nonaen-12-yl]amino}-2-oxoethyl)-N-(2-fluorophenyl)pyrrolidine-1-carboxamide bis(trifluoroacetate)]	255 nM	8.5 nM
O=C(C[C@H]1CCN(C(=O)c2ccno2)C1)Nc1ccc2cc1CCc1cncc(c1)Nc1ncc(Cl)c(n1)N2 [Example D105, N-[6-Chloro-2,4,8,18,22-pentaazatetracyclo[14.3.1.1(3,7).1(9,13)]docosa-1(20),3(22),4,6,9(21),10,12,16,18-nonaen-12-yl]-2-[(3R)-1-(isoxazol-5-ylcarbonyl)pyrrolidin-3-yl]acetamide bis(trifluoroacetate)]	216 nM	25 nM
Cn1ccc(C(=O)N2CC[C@H](CC(=O)Nc3ccc4cc3CCc3cncc(c3)Nc3ncc(Cl)c(n3)N4)C2)n1 [Example D106, N-[6-Chloro-2,4,8,18,22-pentaazatetracyclo[14.3.1.1(3,7).1(9,13)]docosa-1(20),3(22),4,6,9(21),10,12,16,18-nonaen-12-yl]-2-{(3R)-1-[(1-methyl-1H-pyrazol-3-yl)carbonyl]pyrrolidin-3-yl}acetamide bis(trifluoroacetate)]	256 nM	32 nM
Cc1oncc1C(=O)N1CC[C@H](CC(=O)Nc2ccc3cc2CCc2cncc(c2)Nc2ncc(Cl)c(n2)N3)C1 [Example D108, N-[6-Chloro-2,4,8,18,22-pentaazatetracyclo[14.3.1.1(3,7).1(9,13)]docosa-1(20),3(22),4,6,9(21),10,12,16,18-nonaen-12-yl]-2-{(3R)-1-[(5-methylisoxazol-4-yl)carbonyl]pyrrolidin-3-yl}acetamide bis(trifluoroacetate)]	246 nM	62 nM

The next lines start with the values.

IC50 [1]	IC50 [2]	Structure (SMILES)
107 nM	15 nM	N#Cc1cccc(NC(=O)N2CC[C@H](CC(=O)Nc3ccc4cc3CCc3cncc(c3)Nc3ncc(Cl)c(n3)N4)C2)c1 [Example D99, (3R)-3-(2-{[6-Chloro-2,4,8,18,22-pentaazatetracyclo[14.3.1.1(3,7).1(9,13)]docosa-1(20),3(22),4,6,9(21),10,12,16,18-nonaen-12-yl]amino}-2-oxoethyl)-N-(3-cyanophenyl)pyrrolidine-1-carboxamide bis(trifluoroacetate)]
191 nM	20 nM	N#Cc1ccccc1NC(=O)N1CC[C@H](CC(=O)Nc2ccc3cc2CCc2cncc(c2)Nc2ncc(Cl)c(n2)N3)C1 [Example D100, (3R)-3-(2-{[6-Chloro-2,4,8,18,22-pentaazatetracyclo[14.3.1.1(3,7).1(9,13)]docosa-1(20),3(22),4,6,9(21),10,12,16,18-nonaen-12-yl]amino}-2-oxoethyl)-N-(2-cyanophenyl)pyrrolidine-1-carboxamide bis(trifluoroacetate)]
172 nM	14 nM	O=C(C[C@H]1CCN(C(=O)Nc2cccnc2)C1)Nc1ccc2cc1CCc1cncc(c1)Nc1ncc(Cl)c(n1)N2 [Example D101, (3R)-3-(2-{[6-Chloro-2,4,8,18,22-pentaazatetracyclo[14.3.1.1(3,7).1(9,13)]docosa-1(20),3(22),4,6,9(21),10,12,16,18-nonaen-12-yl]amino}-2-oxoethyl)-N-pyridin-3-ylpyrrolidine-1-carboxamide tris(trifluoroacetate)]
185 nM	25 nM	Cn1cc(C(=O)N2CC[C@H](CC(=O)Nc3ccc4cc3CCc3cncc(c3)Nc3ncc(Cl)c(n3)N4)C2)cn1 [Example D107, N-[6-Chloro-2,4,8,18,22-pentaazatetracyclo[14.3.1.1(3,7).1(9,13)]docosa-1(20),3(22),4,6,9(21),10,12,16,18-nonaen-12-yl]-2-{(3R)-1-[(1-methyl-1H-pyrazol-4-yl)carbonyl]pyrrolidin-3-yl}acetamide bis(trifluoroacetate)]
	50 nM	Cc1oncc1C(=O)N1CC[C@@H](CC(=O)Nc2ccc3cc2CCc2cncc(c2)Nc2ncc(Cl)c(n2)N3)C1 [Example D123, N-[6-Chloro-2,4,8,18,22-pentaazatetracyclo[14.3.1.1(3,7).1(9,13)]docosa-1(20),3(22),4,6,9(21),10,12,16,18-nonaen-12-yl]-2-{(3S)-1-[(5-methylisoxazol-4-yl)carbonyl]pyrrolidin-3-yl}acetamide bis(trifluoroacetate)]
	16 nM	Cc1cc(C(=O)N2CC[C@@H](CC(=O)Nc3ccc4cc3CCc3cncc(c3)Nc3ncc(Cl)c(n3)N4)C2)no1 [Example D124, N-[6-Chloro-2,4,8,18,22-pentaazatetracyclo[14.3.1.1(3,7).1(9,13)]docosa-1(20),3(22),4,6,9(21),10,12,16,18-nonaen-12-yl]-2-{(3S)-1-[(5-methylisoxazol-3-yl)carbonyl]pyrrolidin-3-yl}acetamide bis(trifluoroacetate)]
	34 nM	O=C(C[C@@H]1CCN(C(=O)c2nccs2)C1)Nc1ccc2cc1CCc1cncc(c1)Nc1ncc(Cl)c(n1)N2 [Example D125, N-[6-Chloro-2,4,8,18,22-pentaazatetracyclo[14.3.1.1(3,7).1(9,13)]docosa-1(20),3(22),4,6,9(21),10,12,16,18-nonaen-12-yl]-2-[(3S)-1-(1,3-thiazol-2-ylcarbonyl)pyrrolidin-3-yl]acetamide bis(trifluoroacetate)]
	98 nM	Cn1cncc1C(=O)N1CC[C@@H](CC(=O)Nc2ccc3cc2CCc2cncc(c2)Nc2ncc(Cl)c(n2)N3)C1 [Example D126, N-[6-Chloro-2,4,8,18,22-pentaazatetracyclo[14.3.1.1(3,7).1(9,13)]docosa-1(20),3(22),4,6,9(21),10,12,16,18-nonaen-12-yl]-2-{(3S)-1-[(1-methyl-1H-imidazol-5-yl)carbonyl]pyrrolidin-3-yl}acetamide tris(trifluoroacetate)]
	23 nM	O=C(C[C@H]1CCN(C(=O)c2cc[nH]n2)C1)Nc1ccc2cc1CCc1cncc(c1)Nc1ncc(Cl)c(n1)N2 [Example D130, N-[6-Chloro-2,4,8,18,22-pentaazatetracyclo[14.3.1.1(3,7).1(9,13)]docosa-1(20),3(22),4,6,9(21),10,12,16,18-nonaen-12-yl]-2-[(3R)-1-(1H-pyrazol-3-ylcarbonyl)pyrrolidin-3-yl]acetamide bis(trifluoroacetate)]
	11 nM	O=C(C[C@@H]1CCCN(c2nc3cccnc3o2)C1)Nc1ccc2cc1CCc1cncc(c1)Nc1ncc(Cl)c(n1)N2 [Example D213, N-[6-Chloro-2,4,8,18,22-pentaazatetracyclo[14.3.1.1(3,7).1(9,13)]docosa-1(20),3(22),4,6,9(21),10,12,16,18-nonaen-12-yl]-2-[(3S)-1-[1,3]oxazolo[5,4-b]pyridin-2-ylpiperidin-3-yl]acetamide tris(trifluoroacetate)]
